Here are results for nine molecules from patent US6448405B1, “Steroid receptor modulator compounds and methods” (Ligand Pharmaceuticals Incorporated, priority 1994, dated 2002).

The structures appear in SMILES notation. Read-outs that look alike come from different tables or passages of the source.

The target of one assay is T1, human PR-B (Homo sapiens, UniProt P06401).
T1 construct: expressed in transfected cells; host or cells: CV-1 cells (African green monkey kidney fibroblasts), transient transfection
T1 sequence (P06401 1-933): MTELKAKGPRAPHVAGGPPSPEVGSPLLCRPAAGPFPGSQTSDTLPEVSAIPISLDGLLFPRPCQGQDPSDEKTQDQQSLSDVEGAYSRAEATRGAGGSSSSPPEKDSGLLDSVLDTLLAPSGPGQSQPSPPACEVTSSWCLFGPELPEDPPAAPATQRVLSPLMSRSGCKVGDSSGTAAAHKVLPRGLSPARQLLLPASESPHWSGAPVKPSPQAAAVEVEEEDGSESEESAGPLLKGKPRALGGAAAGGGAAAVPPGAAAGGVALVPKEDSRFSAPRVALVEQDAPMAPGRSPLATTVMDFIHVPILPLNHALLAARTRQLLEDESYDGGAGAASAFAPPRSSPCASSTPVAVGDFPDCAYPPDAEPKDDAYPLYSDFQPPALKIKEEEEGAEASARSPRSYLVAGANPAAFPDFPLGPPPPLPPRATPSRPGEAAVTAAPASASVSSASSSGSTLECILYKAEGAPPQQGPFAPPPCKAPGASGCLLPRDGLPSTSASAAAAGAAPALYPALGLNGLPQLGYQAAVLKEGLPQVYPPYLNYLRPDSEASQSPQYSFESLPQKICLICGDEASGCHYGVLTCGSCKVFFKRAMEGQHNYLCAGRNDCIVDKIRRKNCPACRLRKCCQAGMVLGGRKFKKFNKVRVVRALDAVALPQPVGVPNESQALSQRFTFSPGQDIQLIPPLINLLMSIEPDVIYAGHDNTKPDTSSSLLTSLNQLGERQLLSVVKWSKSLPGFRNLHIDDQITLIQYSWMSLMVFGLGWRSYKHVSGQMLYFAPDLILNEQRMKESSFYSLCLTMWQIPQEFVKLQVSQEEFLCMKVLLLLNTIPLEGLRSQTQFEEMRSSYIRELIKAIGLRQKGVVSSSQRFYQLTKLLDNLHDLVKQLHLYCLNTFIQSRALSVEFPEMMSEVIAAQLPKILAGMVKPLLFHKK
The assay is described as follows: Co-transfection assay, PR agonist and antagonist activity, CV-1 cells.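 As to all read-outs here: luciferase reporter driven by a hormone response element, co-transfected with human PR-B into CV-1 monkey kidney cells, agonists raise and antagonists lower the reporter signal.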 It is filed as cell-based. As to conditions: for EC50: agonist mode, read-out: PR Agonist CV-1 Cells Potency.

Assay [1] deals with T2, human progesterone receptor A form (PR-A) (Homo sapiens, UniProt P06401).
T2 sequence (P06401 1-769 isoform P06401-2): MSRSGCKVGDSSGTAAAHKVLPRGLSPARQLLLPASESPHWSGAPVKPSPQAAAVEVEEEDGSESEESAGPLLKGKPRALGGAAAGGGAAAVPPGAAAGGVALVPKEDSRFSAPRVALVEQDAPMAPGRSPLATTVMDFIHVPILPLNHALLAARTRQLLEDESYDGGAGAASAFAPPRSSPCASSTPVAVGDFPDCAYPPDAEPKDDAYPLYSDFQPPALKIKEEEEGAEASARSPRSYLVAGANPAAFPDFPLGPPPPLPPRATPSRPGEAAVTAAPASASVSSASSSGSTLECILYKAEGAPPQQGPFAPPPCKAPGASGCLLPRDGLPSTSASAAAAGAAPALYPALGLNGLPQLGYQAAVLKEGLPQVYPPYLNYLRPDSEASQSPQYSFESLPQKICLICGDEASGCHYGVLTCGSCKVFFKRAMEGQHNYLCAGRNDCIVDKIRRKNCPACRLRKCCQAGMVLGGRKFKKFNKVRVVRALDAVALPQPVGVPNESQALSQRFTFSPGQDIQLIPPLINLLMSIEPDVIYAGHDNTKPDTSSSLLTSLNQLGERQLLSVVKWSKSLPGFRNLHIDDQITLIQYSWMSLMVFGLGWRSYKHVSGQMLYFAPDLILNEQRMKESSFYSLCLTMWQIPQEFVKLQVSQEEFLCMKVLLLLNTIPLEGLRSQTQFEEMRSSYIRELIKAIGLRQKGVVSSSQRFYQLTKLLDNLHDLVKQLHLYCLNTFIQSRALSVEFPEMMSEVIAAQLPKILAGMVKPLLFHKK
The experiment in a line: PR binding assay, baculovirus extract, [3H] progesterone.

Setting [2] is: read-out: PR Antagonist CV-1 Cells Potency.

Consider `CC1=CC(C)(C)Nc2ccc(-n3cnc(Cl)c3Cl)cc21` [Compound 103, 6-(4,5-Dichloroimidazol-1-yl)-1,2-dihydro-2,2,4-trimethylquinoline], for which, at human PR-B, the “PR Agonist CV-1 Cells Efficacy (%)” value is “na (na = not active (i.e. efficacy or <20 and potency of >10,000))”; the “PR Antagonist CV-1 Cells Efficacy (%)” value is recorded as 91%; the EC50 is greater than 10000 nM. Besides, the IC50 on human PR-B (setting [2]) amounted to 780 nM. Further, in assay [1] (read-out: PR Binding Ki), the Ki was found to be 372 nM.
With `CC1=CC(C)(C)Nc2ccc(-c3nn(C)cc3Br)cc21` [Compound 104, 6-(4-Bromo-1-methylpyrazol-3-yl)-1,2-dihydro-2,2,4-trimethylquinoline], at human PR-B, the “PR Agonist CV-1 Cells Efficacy (%)” value is recorded as 39%, the “PR Antagonist CV-1 Cells Efficacy (%)” value came out at 71% and the EC50 is 2750 nM. Moreover, on human PR-B (setting [2]), the IC50 worked out at 120 nM. For the same molecule, the inhibition constant (Ki) in assay [1] (read-out: PR Binding Ki) amounted to 82 nM.
In the case of `CC1=CC(C)(C)Nc2ccc(-c3cccc(Cl)c3Cl)cc21` [Compound 109, 6-(2,3-Dichlorophenyl)-1,2-dihydro-2,2,4-trimethylquinoline], at human PR-B, the “PR Agonist CV-1 Cells Efficacy (%)” value is “na (na = not active (i.e. efficacy or <20 and potency of >10,000))”; the “PR Antagonist CV-1 Cells Efficacy (%)” value was determined as 87%; the EC50 was greater than 10000 nM. Moreover, the IC50 at human PR-B (setting [2]) was 138 nM. For the same molecule, the Ki in assay [1] (read-out: PR Binding Ki) amounted to 23 nM.
On to `CC1=CC(C)(C)Nc2ccc3c(c21)/C(=C/c1ccccc1)Oc1ccccc1-3` [Compound 220, (Z)-5-Benzylidene-1,2-dihydro-2,2,4-trimethyl-5H-chromeno[3,4-f]quinoline], for which, on human PR-B, the IC50 is greater than 10000 nM; the “PR Antagonist CV-1 Cells Efficacy (%)” value is “na (key: na = not active (i.e. efficacy or <20 and potency of >10,000))”; the EC50 amounted to 33 nM. Further, the Ki in assay [1] turned out to be 1 nM.
With `CC1=CC(C)(C)Nc2ccc3c(c21)/C(=C/c1ccc(F)cc1)Oc1ccccc1-3` [Compound 221, (Z)-5-(4-Fluorobenzylidene)-1,2-dihydro-2,2,4-trimethyl-5H-chromeno[3,4-f]quinoline], on human PR-B, the IC50 was greater than 10000 nM; the “PR Antagonist CV-1 Cells Efficacy (%)” value is “na (key: na = not active (i.e. efficacy or <20 and potency of >10,000))”; the EC50 worked out at 117 nM. Further, affinity in assay [1] was put at a Ki of 4 nM.
Consider `CC1=CC(C)(C)Nc2ccc3c(c21)/C(=C/c1ccccc1F)Oc1ccccc1-3` [Compound 228, (Z)-5-(2-Fluorobenzylidene)-1,2-dihydro-2,2,4-trimethyl-5H-chromeno[3,4-f]quinoline], for which, at human PR-B, the IC50 is greater than 10000 nM; the “PR Antagonist CV-1 Cells Efficacy (%)” value was “na (key: na = not active (i.e. efficacy or <20 and potency of >10,000))”; the EC50 came to 40 nM. In assay [1], this molecule yielded an inhibitory constant (Ki) of 3 nM.
`CC1C(=O)C(C)(C)Nc2ccc(-c3cc(F)cc(C#N)c3)cc21` (stereo not drawn) [Compound 286, 6-(3-Cyano-5-Fluorophenyl)-1,2-dihydro-2,2,4-trimethyl-3-quinolone]: at human PR-B, the “PR Agonist CV-1 Cells Efficacy (%)” value was “na (na = not active (i.e. efficacy or <20 and potency of >10,000))”; the “PR Antagonist CV-1 Cells Efficacy (%)” value is 84%; the EC50 is greater than 10000 nM. Besides, on human PR-B (setting [2]), the IC50 is 155 nM. For the same molecule, the Ki in assay [1] (read-out: PR Binding Ki) worked out at 61 nM.
As to `CC1=CC(C)(C)Nc2c(F)cc(-c3cccc([N+](=O)[O-])c3)cc21` [Compound 291, 8-Fluoro-1,2-dihydro-2,2,4-trimethyl-6-(3-nitrophenyl)quinoline], on human PR-B, the “PR Agonist CV-1 Cells Efficacy (%)” value was “na (na = not active (i.e. efficacy or <20 and potency of >10,000))”; the “PR Antagonist CV-1 Cells Efficacy (%)” value is 79%; the EC50 is greater than 10000 nM. Also, at human PR-B (setting [2]), the IC50 was 46 nM. Further, the inhibitory constant (Ki) in assay [1] (read-out: PR Binding Ki) amounted to 4 nM.
For the molecule `CC1=CC(C)(C)Nc2ccc(-c3cccc([N+](=O)[O-])c3)c(Cl)c21` [Compound 310, 5-Chloro-1,2-dihydro-2,2,4-trimethyl-6-(3-nitrophenyl)quinoline], on human PR-B, the “PR Agonist CV-1 Cells Efficacy (%)” value was “na (na = not active (i.e. efficacy or <20 and potency of >10,000))”; the “PR Antagonist CV-1 Cells Efficacy (%)” value is listed as 70%; the EC50 is greater than 10000 nM. Also, at human PR-B (setting [2]), the IC50 worked out at 260 nM. Moreover, the Ki in assay [1] (read-out: PR Binding Ki) was 7 nM.

By Ki is commonly meant the equilibrium dissociation constant of an inhibitor or competing ligand from its target.
